The record followed here is patent US20220105157A1, “Compositions and Methods for Promoting Angiogenesis in the Eye” (The Regents of the University of California, priority 2019, published 2022).

In test [1] the test system is bovine aortic endothelial (BAE) cells. As to the kind of experiment: BAE endothelial cell proliferation assay (alamar blue). The class given is cell-based. On the procedure:
The bovine endothelial proliferation assays were performed essentially as previously described (63, 64). BCE (1×10^3 cells/well) or BRE (5×10^2 cells/well) cells were seeded in 96-well plates in the culture medium (DMEM-low glucose supplemented with 10% BCS, 2 mM glutamine and antibiotics) plus testing materials with a total volume of 200 μl per well. BAE cells were plated in 96-well plates at a density of 2×10^3 cells in the culture medium (DMEM-low glucose supplemented with 1% BCS and antibiotics) plus testing material with a total volume of 200 μl per well. HRME cells were seeded at a density of 1×10^3 cells/well in gelatin-coated 96-well plates in assay medium (DMEM-low glucose supplemented with 20% FBS and antibiotics) plus testing materials to make a total volume 200 μl per well. For assays involving antibodies or small-molecule inhibitors, inhibitors or vehicle controls were first added and then test materials were added one hour later. After 6 days (unless otherwise specified), cells were incubated with alamar blue for 4 h. Fluorescence was measured at 530 nm excitation wavelength and 590 nm emission wavelength. Each experiment was carried out in duplicate/triplicate and repeated at least three times.

For a further test, the system named is BAE cells. As to the kind of experiment: Annexin V staining for cell death. It is filed as cell-based, bovine. The settings on record: BAE cells treated with LIF (10 ng/ml) for 24 hours. On the procedure:
BAE cells were plated at a density of 2×10^4 cells/well with 1 ml of culture medium (DMEM-low glucose plus 10% BCS) in 12-well plates and then incubated at 37° C. overnight. After removal of culture medium, cells were incubated in 0.5 ml of DMEM-low glucose plus 1% BCS. LIF (10 ng/ml) and vehicle control (0.1% BSA in PBS) were added to the cells. Following LIF treatment for 24 hours, cells were examined for cell death marker Annexin V using Annexin V-Cy5 Apoptosis Staining Detection Kit (Abcam, CAT #ab14150) according to manufacturer's instructions. Briefly, cell culture medium was removed and 0.5 ml of Annexin V binding solution was laid over onto the cells. Cells were incubated at room temperature for 5 min following addition of 5 μl of Annexin V-Cy5. Then, the staining solution was discarded and replaced with 0.5 ml of Annexin V binding solution. Imaging of Annexin V staining were performed using Keyence Microscope BZ-X710 (Keyence Corporation, Osaka, Japan). Four random fields were selected and the percentages of Annexin V-staining area in total cell-covered area as indicatives for cell death were determined using ImageJ software. The experiment was carried out in triplicate and repeated three time.

As to “LIF: recombinant human leukemia inhibitory factor, a member of the IL-6 family of cytokines”, the BAE cell growth entry in test [1] is listed as “growth inhibition”. Moreover, the “Annexin V positive cells (cell death marker)” value in the test with BAE cells is on record as “increased proportion of cells were Annexin V positive”.
